{"source": "patent US20230000813A1", "about": "“COMPOUND FOR THE TREATMENT OF BOVINE OR SWINE RESPIRATORY DISEASE” (Intervet Inc., priority 2016, published 2023)", "type_in_all_cases": "cell-based", "key": {"[1]": {"tested_on": "Mannheimia haemolytica MH 6374 (ATCC 33396, reference strain)", "assay": "MIC, broth-microdilution (CLSI VET01-A4)", "procedure,_shortened": "(§1)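 Broth microdilution per CLSI VET01-A4 using doubling dilution series of test compound; results interpreted per CLSI VET01-S3. MIC recorded as lowest concentration giving no turbidity visible to the unaided eye.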"}, "[2]": {"tested_on": "Pasteurella multocida PM 10775 (080130003051, BRD field isolate)", "assay": "MIC, broth-microdilution (CLSI VET01-A4)", "procedure,_shortened": "as §1"}, "[3]": {"tested_on": "Pasteurella multocida PM 12080 (IV102277-0093, BRD field isolate)", "assay": "MIC, broth-microdilution (CLSI VET01-A4)", "procedure,_shortened": "as §1"}, "[4]": {"tested_on": "Pasteurella multocida PM 6267 (P 2225 (L386), reference strain, mouse infection strain)", "assay": "MIC, broth-microdilution (CLSI VET01-A4)", "procedure,_shortened": "as §1"}, "[5]": {"tested_on": "Mannheimia haemolytica MH 6357 (M7/2, reference strain, cattle infection strain)", "assay": "MIC, broth-microdilution (CLSI VET01-A4)", "procedure,_shortened": "as §1"}, "[6]": {"tested_on": "Pasteurella multocida PM 6391 (ATCC 43137, reference strain)", "assay": "MIC, broth-microdilution (CLSI VET01-A4)", "procedure,_shortened": "as §1"}, "[7]": {"tested_on": "Mannheimia haemolytica MH 10720 (154, BRD field isolate)", "assay": "MIC, broth-microdilution (CLSI VET01-A4)", "procedure,_shortened": "as §1"}, "[8]": {"tested_on": "Mannheimia haemolytica MH 12587 (1071, BRD field isolate, macrolide-resistance: erm+, E+)", "assay": "MIC, broth-microdilution (CLSI VET01-A4)", "procedure,_shortened": "as §1"}, "[9]": {"tested_on": "Staphylococcus aureus SA 6114 (ATCC 29213, reference strain)", "assay": "MIC, broth-microdilution (CLSI VET01-A4)", "details": "strain SA 6114", "method": "(§2) The Minimum inhibitory concentrations (MIC) of compounds according to the invention were determined by the broth-microdilution method according to CLSI document VET01-A4.\n(§3) Microdilution trays containing a doubling dilution series of the test compound were used for the tests.\n(§4) The MIC results were interpreted according to the CLSI documents VET01-S3. The lowest concentration of compound at which no visible growth (i.e. no turbidity) detected by the unaided eye was recorded as the MIC."}, "[10]": {"tested_on": "Staphylococcus aureus SA 5816 (2139, mastitis field isolate)", "assay": "MIC, broth-microdilution (CLSI VET01-A4)", "details": "strain SA 5816", "method": "as §2, §3, §4"}, "[11]": {"tested_on": "Acinetobacter baumanii AB 15919 (IV369-2012, dermatitis field isolate)", "assay": "MIC, broth-microdilution (CLSI VET01-A4)", "details": "strain AB 15919", "method": "as §2, §3, §4"}, "[12]": {"tested_on": "Mannheimia haemolytica MH 12180 (KLI-02944, BRD field isolate)", "assay": "MIC, broth-microdilution (CLSI VET01-A4)", "details": "strain MH 12180", "method": "as §2, §3, §4"}, "[13]": {"tested_on": "Acinetobacter baumanii AB 16496 (ATCC 19606, reference strain)", "assay": "MIC, broth-microdilution (CLSI VET01-A4)", "details": "strain AB 16496", "method": "as §2, §3, §4"}, "[14]": {"tested_on": "Pasteurella multocida PM 14426 (0006-439, BRD field isolate, macrolide-resistant)", "assay": "MIC, broth-microdilution (CLSI VET01-A4)", "details": "strain PM 14426, macrolide-resistant", "method": "as §2, §3, §4"}, "[15]": {"tested_on": "Mannheimia haemolytica MH 13065 (XB0446-6003.9, BRD field isolate)", "assay": "MIC, broth-microdilution (CLSI VET01-A4)", "procedure,_shortened": "(§5)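 Broth microdilution per CLSI VET01-A4 using doubling dilution series of compound. MIC taken as the lowest concentration with no turbidity visible to the unaided eye, interpreted per CLSI VET01-S3.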"}, "[16]": {"tested_on": "Mannheimia haemolytica MH 13093 (XB0472-6014.1, BRD field isolate)", "assay": "MIC, broth-microdilution (CLSI VET01-A4)", "procedure,_shortened": "as §5"}, "[17]": {"tested_on": "40 isolates of Pasteurella (P.) multocida", "assay": "MIC50/MIC90, broth-microdilution, European respiratory tract isolates", "procedure,_shortened": "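Isolates came from the respiratory tract of diseased swine and cattle in several European countries and were epidemiologically unrelated. MICs were determined by broth microdilution with doubling dilutions per CLSI VET01-A4, interpreted per VET01-S3. MIC is the lowest concentration with no visible turbidity.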"}}, "note": "Where two headings read alike, the source gives them in different places."}
{"smiles": "CC(C)(N)C(NC(=O)c1ccc(C#Cc2ccc(CNC3CC3)cc2)cc1)C(=O)NO", "note": "(centres unmarked) [C. 329]", "values": [{"measurement": "MIC", "setting": "[1]; Mannheimia haemolytica MH 6374, read-out: MIC MH 6374", "result": 0.8, "unit": "µM"}, {"measurement": "MIC", "setting": "[1]; strain MH 6374", "result": 0.25, "unit": "µg/mL"}, {"measurement": "MIC PM 10775", "setting": "[2]; Pasteurella multocida PM 10775", "result": "<=0.1 μM"}, {"measurement": "MIC", "setting": "[2]; strain PM 10775", "result": "≤0.016", "unit": "µg/mL"}, {"measurement": "MIC PM 12080", "setting": "[3]; Pasteurella multocida PM 12080", "result": "<=0.1 μM"}, {"measurement": "MIC", "setting": "[3]; strain PM 12080", "result": 0.032, "unit": "µg/mL"}, {"measurement": "MIC PM 6267", "setting": "[4]; Pasteurella multocida PM 6267", "result": "<=0.1 μM"}, {"measurement": "MIC", "setting": "[4]; strain PM 6267", "result": "≤0.016", "unit": "µg/mL"}, {"measurement": "MIC", "setting": "[5]; Mannheimia haemolytica MH 6357, read-out: MIC MH 6357", "result": 1.6, "unit": "µM"}, {"measurement": "MIC", "setting": "[5]; strain MH 6357", "result": 0.5, "unit": "µg/mL"}, {"measurement": "MIC PM 6391", "setting": "[6]; Pasteurella multocida PM 6391", "result": "<=0.1 μM"}, {"measurement": "MIC", "setting": "[6]; strain PM 6391", "result": 0.063, "unit": "µg/mL"}, {"measurement": "MIC", "setting": "[7]; Mannheimia haemolytica MH 10720, read-out: MIC MH 10720", "result": 0.4, "unit": "µM"}, {"measurement": "MIC", "setting": "[7]; strain MH 10720", "result": 0.5, "unit": "µg/mL"}, {"measurement": "MIC MH 12587", "setting": "[8]; Mannheimia haemolytica MH 12587, macrolide-resistant", "result": 1.6, "unit": "µM"}, {"measurement": "MIC", "setting": "[8]; strain MH 12587, macrolide-resistant", "result": 0.5, "unit": "µg/mL"}, {"measurement": "MIC", "setting": "[9]", "result": ">16", "unit": "µg/mL"}, {"measurement": "MIC", "setting": "[10]", "result": ">16", "unit": "µg/mL"}, {"measurement": "MIC", "setting": "[11]", "result": 16, "unit": "µg/mL"}, {"measurement": "MIC", "setting": "[12]", "result": 0.5, "unit": "µg/mL"}, {"measurement": "MIC", "setting": "[13]", "result": ">16", "unit": "µg/mL"}, {"measurement": "MIC", "setting": "[14]", "result": "≤0.016", "unit": "µg/mL"}, {"measurement": "MIC", "setting": "[15]", "result": 0.8, "unit": "µM"}, {"measurement": "MIC", "setting": "[16]", "result": 1.6, "unit": "µM"}, {"measurement": "MIC50", "setting": "[17]", "result": 0.032, "unit": "µg/mL"}, {"measurement": "MIC90", "setting": "[17]", "result": 0.032, "unit": "µg/mL"}]}
